Patent US20120065126A1, “Pharmaceutical Compositions Containing Antifungal Peptides” (BASF SE, priority 2009, published 2012)
Ends that are not written are not given here.

Columns and labels:
Malassezia furfur = experiment: Growth inhibition at equal concentrations by weight of P18, zinc pyrithione, climbazole, ketoconazole (CFU); type: cell-based
Protocol: (§1) The studies described hereinafter were conducted on the Malassezia furfur strain DSM 6170.
For this purpose, the procedure was as follows:
(§2) The growth test was effected as follows: a shake culture containing M472 Pityrosporum medium was inoculated with M. furfur and incubated with shaking at 30° C. and 200 rpm overnight.
A 96-well microtiter plate was filled with 100 μl per well of M472 Pityrosporum medium and inoculated with M. furfur suspension from the overnight culture. The M. furfur suspension was adjusted at the start of the experiment to an optical density, measured at 600 nm, of 0.02. The concentrates of the inhibitor solutions were 1 mM in DMSO for P18 peptide and 10 mM in DMSO for zinc pyrithione, ketoconazole and climbazole. The final DMSO concentration was kept the same in all experiments.
The following growth was compared by measuring the optical density: • M. furfur suspension and addition of the P18 solution with a final concentration of 50 μM (corresponds to 0.0115% (w/w)) • M. furfur suspension and addition of the zinc pyrithione (ZPT) solution with a final concentration of 362 μM (comparison to the mixture containing 50 μM P18 peptide) • M. furfur suspension and addition of the ketoconazole solution with a final concentration of 216 μM (comparison to the mixture containing 50 μM P18 peptide) • M. furfur suspension and addition of the climbazole solution with a final concentration of 390 μM (comparison to the mixture containing 50 μM P18 peptide)
The microtiter plate was incubated with shaking at 30° C.
[…] After incubation over the course of 6 days, the colonies on the plate were counted. The CFU was determined in order to rule out any influence of the biphasic medium, and also the growth form of M. furfur, on the optical density. The experiments were each conducted in double determination, at least in two independent experiments.

M. furfur = experiment: Effect of P18 variants (CFU); type: cell-based, Malassezia furfur; details: 50 μM peptide, with DMSO; 24 h
Protocol: as §1
The inhibitory effect of the following P18 variants on M. furfur was studied:
as §2
A 96-well microtiter plate was filled with 100 μl per well of M472 Pityrosporum medium and inoculated with M. furfur suspension from the overnight culture. The M. furfur suspension was adjusted at the start of the experiment to an optical density, measured at 600 nm, of 0.1.
The peptide variants were dissolved with a final concentration of 1 mM in dimethyl sulfoxide (DMSO). It is also possible to dispense with DMSO and to use a purely aqueous peptide solution. 5 μl of this solution were added to 100 μl of M. furfur suspension (final concentration of the P18 peptide 50 μM). In a control mixture, the same amount of DMSO without P18 peptide was added.
The microtiter plate was incubated with shaking at 30°.
After 24 h, the colony forming units (CFU) were determined by streaking 10 μl of each of the suspensions and, after incubation over the course of 6 days, counting the colonies. Two independent experiments each with three identical mixtures were conducted, and the number of colony forming units was averaged.

M. furfur DSM 6170 = experiment: Comparison of further inventive peptides and AFPP (CFU); type: cell-based, Malassezia furfur; details: 0.3%; 10 minutes
Source text: In order to compare the effect of other inventive peptides with the effect of the antifungal polypeptide AFPP from Aspergillus giganteus on the growth of Malassezia furfur, the procedure was as follows:
As a comparison, the peptide variants with SEQ ID NO. 4726 (sequence: FKKALHLFKPIKKFLKWK-NH2 (Bachem AG, Switzerland)) and SEQ ID NO. 4727 (sequence: KFLHLAKKFPKWKLFKKI-NH2 (Bachem AG, Switzerland)) were selected. The peptide and AFPP concentrates were in the form of 2% (w/w) solutions in phosphate buffer (10 mM sodium phosphate, pH 7.5, 100 mM NaCl). […]
For each test mixture, a 1.5 ml reaction vessel was filled with Pityrosporum medium and inoculated with the M. furfur overnight culture to give a start OD of 0.1, measured at 600 nm.
The growth of the following test mixtures was monitored: • M. furfur suspension and addition of 90 μl of phosphate buffer (in order to rule out any influence of the phosphate buffer on the effect of the active peptides at a final concentration of 0.3%) • M. furfur suspension with a final concentration of the inventive peptide variant with SEQ ID NO. […]
The reaction volume was 600 μl in each case. […] The CFU (colony forming units) were determined by counting after incubation at 30° C. for 6 days. […]

Molecule | Averaged number of colony forming units (CFU) (M. furfur) | Colony forming units after the incubation time specified (M. furfur DSM 6170) [CFU] | also measured
CC(=O)N1CCN(c2ccc(OCC3COC(Cn4ccnc4)(c4ccc(Cl)cc4Cl)O3)cc2)CC1 (centres unmarked) [ketoconazole] | – | – | Colony forming units (CFU) (Malassezia furfur; final conc. 216 μM, 24 h): 84 ± 76 CFU; Colony forming units (CFU) (Malassezia furfur; final conc. 216 μM, 40 h): 9 ± 5 CFU
H-KWKLFKKIPKFLHLAKKF-OH [P18-OH] | 3 | – | –
KFLHLAKKFPKWKLFKKI-NH2 [Peptide variant SEQ ID NO. 4727] | – | 59 ± 46 | –
FKKALHLFKPIKKFLKWK-NH2 [Peptide variant SEQ ID NO. 4726] | – | 3 ± 1 | –
CC(C)(C)C(=O)C(Oc1ccc(Cl)cc1)n1ccnc1 (centres unmarked) [climbazole] | – | – | Colony forming units (CFU) (Malassezia furfur; final conc. 390 μM, 24 h): 137 ± 33 CFU; Colony forming units (CFU) (Malassezia furfur; final conc. 390 μM, 40 h): 35 ± 15 CFU
H-PKWKLFKKIPKFLHLAKKFD-OH [P18AC-OH] | 37 | – | –
